Laboratory results as given in patent publication US20230287217A1, “Zwitterionic Cell-Permeant and Water-Soluble Rhodamine Dyes for Quantitative Imaging Applications” (OREGON HEALTH & SCIENCE UNIVERSITY, priority 2020, published 2023).

Tests used:
[1] = UV-Vis absorption and fluorescence spectroscopy (spectral properties in aqueous media / PBS buffer); assay type: physicochemical; design: Brightness: unit not given here; conditions: for Brightness / Stokes Shift (nm) / FWHMabs (nm) / λabs (nm) / FWHem (nm) / λem (nm) / ε (M^-1 cm-1) / ϕ: aqueous media; for FWHMabs (nm): absorption band width; for λabs (nm): absorption maximum; for FWHem (nm): emission band width; for λem (nm): emission maximum; for ε (M^-1 cm-1): extinction coefficient from Beer's Law plots; for ϕ: relative quantum yield, TMR and SiTMR as reference
Method: UV-Vis and fluorescence spectra were collected on a SpectraMax M5 spectrometer with a Microplate reader (Molecular Devices, Sunnyvale, CA). All absorbance spectra were reference corrected. Extinction coefficient was calculated from Beer’s Law plots of absorbance versus concentration. Relative quantum yields are reported using TMR and SiTMR as reference.

[2] = Absorption and fluorescence stability against solvent polarity changes (dioxane 20-80% in DI water); assay type: physicochemical; conditions: compared with base fluorophores TMR and SiTMR (SiR)
From the text: FIG. 2D graphs normalized absorption (left) and fluorescence spectra (right) of fluorophores with varied percentages of dioxane (20-80%) in DI water resulting the polarity of the screening solvent systems changing in a gradient manner.
A. general rhodamine fluorophore structures including the classic TMR, SiTMR, and the sulfonated versions. […] This structural change results because the carboxylate anion attacks the central carbon forming a spirolactone, which is both colorless and non-fluorescent. […] C. […] This change in both absorbance and fluorescence intensity was alleviated using our sulfonated versions.

SMILES	Brightness [1]	Stokes Shift (nm) [1]	FWHMabs (nm) [1]	λabs (nm) [1]	FWHem (nm) [1]	λem (nm) [1]	ε (M^-1 cm-1) [1]	ϕ [1]	stability of absorbance and fluorescence intensity against solvent polarity changes [2]	brightness compared with the base fluorophore SiTMR ([1]; PBS buffer)
Cc1ccccc1-c1c2cc/c(=[N+](/C)CCCS(=O)(=O)[O-])cc-2oc2cc(N(C)C)ccc12 [OF550]	59	23 nm	33 nm	552 nm	40 nm	575 nm	97,300 M^-1 cm-1	0.61	substantially improved stability	
Cc1ccccc1C1=C2C=C/C(=[N+](/C)CCCS(=O)(=O)[O-])C=C2[Si](C)(C)c2cc(N(C)C)ccc21 [OF650]	55	19 nm	33 nm	649 nm	40 nm	668 nm	125,500 M^-1 cm-1	0.44	substantially improved stability	five time greater
CN(C)c1ccc2c(c1)[Si](C)(C)C1=CC(=[N+](C)C)C=CC1=C2c1ccccc1C(=O)O [SiR]	7	20 nm	39 nm	642 nm	41 nm	662 nm	19,200 M^-1 cm-1	0.35	diminished rapidly	
CN(C)c1ccc2c(-c3ccccc3C(=O)[O-])c3ccc(=[N+](C)C)cc-3oc2c1 [TMR]	33	25 nm	38 nm	549 nm	42 nm	574 nm	60,900 M^-1 cm-1	0.54		
